Experimental findings from US7795261B2, “Substituted 1-piperidin-4-yl-4-pyrrolidin-3-yl-piperazine derivatives and their use as neurokinin antagonists” (Janssen Pharmaceutica NV, priority 2002, dated 2010) are described below.

Holding throughout (assay type): cell-based
One assay deals with T1, NK3 (Homo sapiens, UniProt P29371).
T1 sequence (P29371 1-465): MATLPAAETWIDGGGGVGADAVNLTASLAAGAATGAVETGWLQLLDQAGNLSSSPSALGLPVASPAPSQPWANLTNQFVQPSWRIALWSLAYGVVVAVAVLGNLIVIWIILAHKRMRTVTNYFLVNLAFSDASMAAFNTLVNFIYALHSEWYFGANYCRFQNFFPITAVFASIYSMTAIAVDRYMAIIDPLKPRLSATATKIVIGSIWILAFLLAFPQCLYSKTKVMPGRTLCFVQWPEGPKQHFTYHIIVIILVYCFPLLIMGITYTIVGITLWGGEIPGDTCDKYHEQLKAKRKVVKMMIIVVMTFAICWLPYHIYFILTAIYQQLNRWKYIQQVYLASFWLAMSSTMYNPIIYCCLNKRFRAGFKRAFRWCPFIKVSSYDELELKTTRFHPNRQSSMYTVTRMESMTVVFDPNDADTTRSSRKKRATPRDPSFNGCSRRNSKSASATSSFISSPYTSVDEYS
As to the kind of experiment: Signal transduction (ST), intracellular Ca++ (FLIPR), NK3. Particulars: read-out: pIC50 NK3 (converted).

Another assay has as its target NK1 (Homo sapiens, UniProt P25103). As to the kind of experiment: Signal transduction (ST), intracellular Ca++ (FLIPR), NK1 antagonistic activity. To be noted: read-out: pIC50 NK1 (converted). The essentials:
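Antagonist IC50 was fitted by non-linear regression of peak intracellular Ca++ signals measured on FLIPR after agonist challenge. Beforehand, Fluo3-loaded confluent cells received antagonists over a concentration range for 20 min at room temperature in Ca++ Krebs buffer, pH 7.4.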

A further assay concerns the target T2, NK2 (Homo sapiens, UniProt P21452).
T2 sequence (P21452 1-398): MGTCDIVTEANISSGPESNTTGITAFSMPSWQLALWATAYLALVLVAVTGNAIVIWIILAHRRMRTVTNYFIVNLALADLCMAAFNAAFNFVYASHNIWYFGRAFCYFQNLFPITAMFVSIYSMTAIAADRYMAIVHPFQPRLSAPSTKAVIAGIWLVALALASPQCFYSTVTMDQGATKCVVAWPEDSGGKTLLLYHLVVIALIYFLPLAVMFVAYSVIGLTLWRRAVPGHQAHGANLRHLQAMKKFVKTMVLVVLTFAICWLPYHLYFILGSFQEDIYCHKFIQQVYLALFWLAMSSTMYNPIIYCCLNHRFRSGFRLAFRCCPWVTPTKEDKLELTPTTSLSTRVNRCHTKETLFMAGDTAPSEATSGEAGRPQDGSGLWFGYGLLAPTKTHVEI
The assay can be described thus: Signal transduction (ST), intracellular Ca++ (FLIPR), NK2. To be noted: read-out: pIC50 NK2 (converted).

NK1, sequence (P25103 whole entry): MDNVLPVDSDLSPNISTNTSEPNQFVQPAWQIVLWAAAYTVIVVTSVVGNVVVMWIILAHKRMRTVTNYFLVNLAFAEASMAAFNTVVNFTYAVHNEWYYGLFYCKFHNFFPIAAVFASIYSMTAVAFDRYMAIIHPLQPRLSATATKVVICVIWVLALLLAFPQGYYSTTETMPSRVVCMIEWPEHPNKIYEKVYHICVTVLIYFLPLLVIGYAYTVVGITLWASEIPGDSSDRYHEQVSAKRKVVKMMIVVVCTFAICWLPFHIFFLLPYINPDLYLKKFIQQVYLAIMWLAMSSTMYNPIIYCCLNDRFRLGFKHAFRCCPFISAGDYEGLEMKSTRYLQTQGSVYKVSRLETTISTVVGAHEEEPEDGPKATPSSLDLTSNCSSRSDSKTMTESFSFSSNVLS

Consider `O=C(C1CCCCC1)N1CC[C@@H](N2CCN([C@H]3CCN(C(=O)c4cc(C(F)(F)F)cc(C(F)(F)F)c4)[C@H](Cc4ccc(Cl)c(Cl)c4)C3)CC2)C1` [Compound 299], for which the IC50 at NK3 was 794 nM; on NK1, 7.94 nM; at NK2, 2510 nM.

Turning to `COc1ccccc1S(=O)(=O)N1CCC(N2CCN([C@H]3CCN(C(=O)c4cc(C(F)(F)F)cc(C(F)(F)F)c4)[C@H](Cc4ccccc4)C3)CC2)C1` (stereo partly drawn) [Compound 300], the IC50 at NK3 is 2000 nM; on NK1, 10 nM; at NK2, 794 nM.

Turning to `N#CN=C(N1CCCC1)N1CCC(N2CCN([C@H]3CCN(C(=O)c4cc(C(F)(F)F)cc(C(F)(F)F)c4)[C@H](Cc4ccccc4)C3)CC2)C1` (stereo partly drawn) [Compound 302], the IC50 on NK3 is 1000 nM; on NK1 it was 7.94 nM; at NK2, 2510 nM.

For the compound `O=C(c1cc(C(F)(F)F)cc(C(F)(F)F)c1)N1CC[C@H](N2CCN(C3CCN(S(=O)(=O)c4ccc(O)cc4)C3)CC2)C[C@H]1Cc1ccccc1` (stereo partly drawn) [Compound 303], the IC50 at NK3 was 3160 nM; at NK1 it was 6.31 nM; on NK2 it was 631 nM.

Consider `CN(C(=O)OC(C)(C)C)C(C)(C)C(=O)N1CCC(N2CCN(C3CCN(C(=O)c4cc(C(F)(F)F)cc(C(F)(F)F)c4)C(Cc4ccccc4)C3)CC2)C1` (stereo not drawn) [Compound 304], for which the values for the IC50 on NK3, at NK1 and at NK2 were 158 nM, 10 nM and 1580 nM, respectively.

As for `O=C(c1cc(C(F)(F)F)cc(C(F)(F)F)c1)N1CC[C@H](N2CCN(C3CCN(S(=O)(=O)c4ccccc4O)C3)CC2)C[C@H]1Cc1ccccc1` (stereo partly drawn) [Compound 307], the IC50 at NK3 was 1260 nM; on NK1 it was 15.8 nM; at NK2, 1260 nM.

For the compound `O=C(c1cc(C(F)(F)F)cc(C(F)(F)F)c1)N1CC[C@H](N2CCN(C3CCN(S(=O)(=O)c4sccc4CO)C3)CC2)C[C@H]1Cc1ccccc1` (stereo partly drawn) [Compound 308], the values for the IC50 on NK3, at NK1 and at NK2 were 251 nM, 7.94 nM and 200 nM, respectively.

`CN(C(=O)C1CC1)C(C)(C)C(=O)N1CCC(N2CCN(C3CCN(C(=O)c4cc(C(F)(F)F)cc(C(F)(F)F)c4)C(Cc4ccccc4)C3)CC2)C1` (stereo not drawn) [Compound 310]: the IC50 at NK3 was 3980 nM; at NK1, 7.94 nM; at NK2, 2000 nM.

In the case of `O=C(C1CC1)N1CC[C@H](N2CCN([C@H]3CCN(C(=O)c4cc(C(F)(F)F)cc(C(F)(F)F)c4)[C@H](Cc4ccc(Cl)c(Cl)c4)C3)CC2)C1` [Compound 312], the IC50 at NK3 is 501 nM; at NK1, 7.94 nM; on NK2, 1580 nM.

For `CC(C)(C)C(=O)N1CC[C@H](N2CCN([C@H]3CCN(C(=O)c4cc(C(F)(F)F)cc(C(F)(F)F)c4)[C@H](Cc4ccc(Cl)c(Cl)c4)C3)CC2)C1` [Compound 313], the IC50 was 251 nM on NK3, 3.98 nM on NK1 and 631 nM on NK2.

Take `O=C(C1CCCCC1)N1CC[C@H](N2CCN([C@H]3CCN(C(=O)c4cc(C(F)(F)F)cc(C(F)(F)F)c4)[C@H](Cc4ccc(Cl)c(Cl)c4)C3)CC2)C1` [Compound 314]: the results for the IC50 on NK3, on NK1 and at NK2 were 501 nM, 15.8 nM and 1260 nM, respectively.

As for `O=C(c1ccccc1Cl)N1CC[C@H](N2CCN([C@H]3CCN(C(=O)c4cc(C(F)(F)F)cc(C(F)(F)F)c4)[C@H](Cc4ccc(Cl)c(Cl)c4)C3)CC2)C1` [Compound 315], the IC50 at NK3 was 631 nM; on NK1, 5.01 nM; on NK2, 501 nM.

Regarding `O=C(c1c(Cl)cccc1Cl)N1CC[C@H](N2CCN([C@H]3CCN(C(=O)c4cc(C(F)(F)F)cc(C(F)(F)F)c4)[C@H](Cc4ccc(Cl)c(Cl)c4)C3)CC2)C1` [Compound 316], the values for the IC50 at NK3, on NK1 and at NK2 were 631 nM, 20 nM and 794 nM, respectively.

For the compound `O=C(c1ccco1)N1CC[C@H](N2CCN([C@H]3CCN(C(=O)c4cc(C(F)(F)F)cc(C(F)(F)F)c4)[C@H](Cc4ccc(Cl)c(Cl)c4)C3)CC2)C1` [Compound 317], the IC50 at NK3 is 631 nM; on NK1, 10 nM; at NK2 it was 398 nM.

As for `O=C(c1cccs1)N1CC[C@H](N2CCN([C@H]3CCN(C(=O)c4cc(C(F)(F)F)cc(C(F)(F)F)c4)[C@H](Cc4ccc(Cl)c(Cl)c4)C3)CC2)C1` [Compound 318], the IC50 on NK3 was 398 nM; on NK1, 15.8 nM; at NK2 it was 316 nM.

Consider `O=C(c1cc(C(F)(F)F)cc(C(F)(F)F)c1)N1CC[C@H](N2CCN(C3CCN(C(CO)c4cccs4)C3)CC2)C[C@H]1Cc1ccccc1` (stereo partly drawn) [Compound 319], for which the IC50 was 3160 nM on NK3, 31.6 nM at NK1 and 5010 nM at NK2.

As to `O=C(c1cc(C(F)(F)F)cc(C(F)(F)F)c1)N1CCC(N2CCN(C3CCN(Cc4ccccc4)C3)CC2)CC1Cc1cc(Cl)cc(Cl)c1` (stereo not drawn) [Compound 320], the IC50 on NK3 was 2510 nM; on NK1, 251 nM; on NK2, 3980 nM.

With `O=C(c1cccs1)N1CC[C@@H](N2CCN([C@H]3CCN(C(=O)c4cc(C(F)(F)F)cc(C(F)(F)F)c4)[C@H](Cc4ccccc4)C3)CC2)C1` [Compound 321], the figures for the IC50 on NK3, at NK1 and on NK2 were 251 nM, 12.6 nM and 3160 nM, respectively.

For the compound `O=C(c1cccs1)N1CC[C@H](N2CCN([C@H]3CCN(C(=O)c4cc(C(F)(F)F)cc(C(F)(F)F)c4)[C@H](Cc4ccccc4)C3)CC2)C1` [Compound 322], the IC50 was 631 nM at NK3, 7.94 nM on NK1 and 3980 nM at NK2.

`O=C(c1cnccn1)N1CC[C@H](N2CCN([C@H]3CCN(C(=O)c4cc(C(F)(F)F)cc(C(F)(F)F)c4)[C@H](Cc4ccc(Cl)c(Cl)c4)C3)CC2)C1` [Compound 323]: the results for the IC50 at NK3, at NK1 and at NK2 were 316 nM, 10 nM and 1260 nM, respectively.

Turning to `O=C(c1cc(C(F)(F)F)cc(C(F)(F)F)c1)N1CC[C@H](N2CCN([C@H]3CCN(C(=O)n4ccnc4)C3)CC2)C[C@H]1Cc1ccc(Cl)c(Cl)c1` [Compound 324], the results for the IC50 on NK3, on NK1 and on NK2 were 398 nM, 6.31 nM and 200 nM, respectively.

On to `O=C(c1ccsc1)N1CC[C@H](N2CCN([C@H]3CCN(C(=O)c4cc(C(F)(F)F)cc(C(F)(F)F)c4)[C@H](Cc4ccc(Cl)c(Cl)c4)C3)CC2)C1` [Compound 325], for which the IC50 is 631 nM at NK3, 15.8 nM on NK1 and 398 nM at NK2.

Consider `O=C(c1ccoc1)N1CC[C@H](N2CCN([C@H]3CCN(C(=O)c4cc(C(F)(F)F)cc(C(F)(F)F)c4)[C@H](Cc4ccc(Cl)c(Cl)c4)C3)CC2)C1` [Compound 326], for which the IC50 is 501 nM on NK3, 15.8 nM on NK1 and 501 nM at NK2.

Turning to `O=C(c1ccccc1O)N1CCC(N2CCN([C@H]3CCN(C(=O)c4cc(C(F)(F)F)cc(C(F)(F)F)c4)[C@H](Cc4ccccc4)C3)CC2)C1` (stereo partly drawn) [Compound 327], the IC50 is 2000 nM on NK3, 6.31 nM at NK1 and 3980 nM on NK2.

As to `COc1ccc(S(=O)(=O)N2CCC(N3CCN([C@H]4CCN(C(=O)c5cc(C(F)(F)F)cc(C(F)(F)F)c5)[C@H](Cc5ccccc5)C4)CC3)C2)s1` (stereo partly drawn) [Compound 328], the IC50 was 6310 nM at NK3, 6.31 nM at NK1 and 631 nM on NK2.

Regarding `O=C(c1cccc(O)c1)N1CCC(N2CCN([C@H]3CCN(C(=O)c4cc(C(F)(F)F)cc(C(F)(F)F)c4)[C@H](Cc4ccccc4)C3)CC2)C1` (stereo partly drawn) [Compound 332], the IC50 at NK3 was 3160 nM; on NK1 it was 5.01 nM; at NK2, 1580 nM.

With `O=C(C(O)c1ccccc1Cl)N1CCC(N2CCN([C@H]3CCN(C(=O)c4cc(C(F)(F)F)cc(C(F)(F)F)c4)[C@H](Cc4ccccc4)C3)CC2)C1` (stereo partly drawn) [Compound 334], the IC50 at NK3 is 7940 nM; on NK1, 31.6 nM; at NK2, 5010 nM.

On to `O=C(c1ccsc1)N1CCC(N2CCN(C3CCN(C(=O)c4cc(C(F)(F)F)cc(C(F)(F)F)c4)C(Cc4cc(F)cc(F)c4)C3)CC2)C1` (stereo not drawn) [Compound 337], for which the IC50 was 1260 nM on NK3, 39.8 nM on NK1 and 3160 nM at NK2.

As for `O=C(C1CC1)N1CCC(N2CCN(C3CCN(C(=O)c4cc(C(F)(F)F)cc(C(F)(F)F)c4)C(Cc4cc(F)cc(F)c4)C3)CC2)C1` (stereo not drawn) [Compound 340], the values for the IC50 on NK3, at NK1 and at NK2 were 6310 nM, 50.1 nM and 6310 nM, respectively.
